From PubChem BioAssay AID504874 (NMMLSC, 2011)
Calls of active or inactive are those of the source.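 The calls were made as follows: active = normalized viability below 40% relative to DMSO and staurosporine controls, called cytotoxic; inactive = the rest.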

Each compound was assayed on L1210 murine leukemia viability, fluorescein diacetate flow cytometry, 48 h (assay: viability of murine L1210 leukemia line – cell-based, cytotoxicity control for T cell immune modulator project (AID 504874)). Settings: at 20 µM; stronger effect = lower value.
For `O=C(c1ccc(N2C(=O)C3CC=C(Cl)CC3C2=O)cc1)N1CCCCC1` (stereo not drawn), the viability was 107% (inactive).
With `O=C(Cn1cc(C(F)(F)F)cc(Cl)c1=O)NCCc1ccc(Cl)cc1Cl` the viability was 103% (inactive).
For `CN(CC(=O)Nc1cc(S(=O)(=O)N2CCCC2)ccc1Cl)Cc1ccc2c(c1)OCO2`, the viability was 92.1% (inactive).
In the case of `Cc1ccccc1C(=O)NCC(=O)N1CCN(C/C=C/c2ccccc2)CC1`, the viability is reported as 83.1% (inactive).
For `COc1ccc(/C=C2\SC(=S)N(CCC(=O)N3CCOCC3)C2=O)cc1`, the viability was 90.8% (inactive).
In the case of `CC(C)(C)NC(=O)COc1ccc(CNCc2cccnc2)cc1`, the viability is reported as 108% (inactive).
`CCOc1ccc(-c2nc(N)ncc2-c2ccccc2)c(O)c1` was tested, and the viability was 105% (inactive).
In the case of `CC(=O)c1ccc(-c2csc(N3CCC(C(N)=O)CC3)n2)cc1`, the viability is reported as 70.7% (inactive).
In the case of `CN(C)S(=O)(=O)c1cccc(-n2sc3ccccc3c2=O)c1`, the viability is reported as 35.5%.
`Cc1ccc(S(=O)(=O)N2CCN(C(=O)CNC(=O)c3ccc(Cl)cc3)CC2)cc1` was tested, and the viability was 96.1% (inactive).
In the case of `c1ccc(COc2ccc(OCCN3CCCCC3)cc2)cc1`, the viability is reported as 57.1% (inactive).
With `CCN(CC)CCNC(=O)CCCNC(=O)Cn1cnc2sc(C)c(C)c2c1=O` the viability was 104% (inactive).
With `CC(Sc1nc2ccccc2[nH]1)C(=O)NC1CCCCC1C` (stereo not drawn) the viability was 98.6% (inactive).
`CCOC(=O)c1ccc(S(=O)(=O)N2CCN(C3CCCC3)CC2)cc1` was tested, and the viability was 102% (inactive).
In the case of `Cc1cc(C)n(C(=O)c2sc3cc(F)ccc3c2Cl)n1`, the viability is reported as 107% (inactive).
With `O=C(O)C1CCC(Cn2c(SCc3cc(=O)n4cc(Cl)ccc4n3)nc3ccsc3c2=O)CC1` (stereo not drawn) the viability was 111% (inactive).
For `COC(=O)c1ccccc1NC(=O)C1CCN(C(=O)c2cc(OC)cc(OC)c2)CC1`, the viability was 108% (inactive).
In the case of `Cc1cc(Cl)c(OCCCSc2nc(C)cc(=O)[nH]2)c(Br)c1`, the viability is reported as 107% (inactive).
With `CCOC(=O)c1c(N2C(=O)CC(Sc3ccccc3C(=O)O)C2=O)sc2c1CCCC2` (stereo not drawn) the viability was 98% (inactive).
With `CCN(CC)C(=O)N1CCN(S(=O)(=O)c2ccc(C)cc2)CC1` the viability was 96.8% (inactive).
`CN1CCN(S(=O)(=O)c2cccc(C(=O)Nc3cc(C(F)(F)F)ccc3N3CCCCC3)c2)CC1` was tested, and the viability was 102% (inactive).
In the case of `O=C1CC(c2nc3ccccc3[nH]2)CN1Cc1ccccc1` (stereo not drawn), the viability is reported as 103% (inactive).
With `Cn1c(CNC(=O)CNC(=O)c2ccc(F)cc2)cc(=O)n(C)c1=O` the viability was 100% (inactive).
With `COc1ccc(N2CC(C(=O)NC(C)C(=O)NCc3ccccc3OC)CC2=O)cc1` (stereo not drawn) the viability was 104% (inactive).
For `COc1ccccc1CNC(=O)COc1ccc(C)cc1`, the viability was 99.1% (inactive).
With `O=C(NCCC1=CCCCC1)C(=O)NCC(c1ccco1)N1CCN(c2ccccc2F)CC1` (stereo not drawn) the viability was 109% (inactive).
For `COc1ccc([N+](=O)[O-])cc1NC(=O)c1ccc(N(Cc2ccccc2C)S(C)(=O)=O)cc1`, the viability was 111% (inactive).
For `Cc1ncc([N+](=O)[O-])n1Cc1cccc(F)c1`, the viability was 104% (inactive).
In the case of `CCC1(C)NC(=O)N(CC(=O)N2N=C(c3ccccc3)CC2c2ccc(OC)cc2)C1=O` (stereo not drawn), the viability is reported as 103% (inactive).
`O=C(OCCOc1cccc(Cl)c1)c1ccc(F)c(S(=O)(=O)N2CCOCC2)c1` was tested, and the viability was 109% (inactive).
In the case of `O=C(NCCN1CCN(c2ccccc2)CC1)c1cccc(Br)c1`, the viability is reported as 96.4% (inactive).
For `Cc1cc(=O)oc2c3c(cc(OCC(=O)NCc4ccncc4)c12)OC(C)(C)CC3`, the viability was 110% (inactive).
In the case of `CCOC(=O)c1c(C=O)c2ccccc2n1CC`, the viability is reported as 104% (inactive).
In the case of `CC1CCCCC1NC(=O)COC(=O)c1ccc2ncsc2c1` (stereo not drawn), the viability is reported as 92.6% (inactive).
With `Cc1ccc(S(=O)(=O)N2CCN(S(=O)(=O)N(C)C)CC2)c(C)c1` the viability was 105% (inactive).
In the case of `O=C(CS(=O)(=O)Cc1ccccc1)N1CCc2ccccc21`, the viability is reported as 102% (inactive).
For `Cc1ccccc1C(=O)N1CCC(C(=O)Nc2ccc(C)c(S(=O)(=O)N3CCCCC3)c2)CC1`, the viability was 15.6%.
`Cc1ccc(OCCOC(=O)c2cc(S(=O)(=O)N3CCCCC3)ccc2N2CCOCC2)cc1` was tested, and the viability was 92.3% (inactive).
In the case of `COc1ccc(NC(=O)CC2C(=O)N(Cc3ccccc3)C(=S)N2CCN2CCOCC2)cc1` (stereo not drawn), the viability is reported as 98.8% (inactive).
`O=C(CCC(=O)N1CCOCC1)NCc1cccc(C(F)(F)F)c1` was tested, and the viability was 110% (inactive).
With `CCOCC(=O)Nc1ccc(S(=O)(=O)N2CCC(c3nc4ccccc4[nH]3)CC2)cc1` the viability was 106% (inactive).
`COc1ccc(Nc2ccccc2N)cc1` was tested, and the viability was 90.2% (inactive).
With `COc1ccc(S(=O)(=O)N2CCCC2C(=O)Nc2ccc(C(C)=O)cc2)cc1` (stereo not drawn) the viability was 112% (inactive).
For `Cc1ccc(Cn2c([N+](=O)[O-])cnc2C)cc1`, the viability was 104% (inactive).
`CCOc1ccc(CCNC(=O)CCS(=O)(=O)c2ccc(C)cc2)cc1OCC` was tested, and the viability was 90.1% (inactive).
`COc1ccc(CNC(=O)c2cccnc2SC)cc1OC` was tested, and the viability was 101% (inactive).
For `CCOC(=O)c1ccc(NC(=O)CN2C(=O)NC3(CCCCCCC3)C2=O)cc1`, the viability was 98.6% (inactive).
`CCCCn1nc(C(=O)N2CCN(S(=O)(=O)c3ccccc3)CC2)c2ccccc2c1=O` was tested, and the viability was 100% (inactive).
In the case of `CCCc1nnc(NC(=O)c2ccc(S(=O)(=O)N(C)c3ccccc3OC)cc2)s1`, the viability is reported as 59.6% (inactive).
For `O=C(NCC1CCCCC1)c1ccc(Cl)c(S(=O)(=O)N2CCOCC2)c1`, the viability was 114% (inactive).
`COCc1c(C(=O)Nc2cccc(S(=O)(=O)N3CCCCC3)c2)oc2ccccc12` was tested, and the viability was 78.5% (inactive).
`CCC(C(=O)Nc1ccccc1)c1ccccc1` (stereo not drawn) was tested, and the viability was 98.3% (inactive).
For `COc1ccc(C(O)c2coc3ccc(O)c(CN(C)C)c23)cc1` (stereo not drawn), the viability was 87.4% (inactive).
With `Cc1ccc(N2CC(C(=O)NC3=NCCS3)CC2=O)cc1` (stereo not drawn) the viability was 102% (inactive).
With `O=C(CC1=NCCNC(c2ccccc2)C1)c1ccccc1O` (stereo not drawn) the viability was 115% (inactive).
For `COc1ccc(S(=O)(=O)N2CCCCC2)cc1NC(=O)c1cnc(C)cn1`, the viability was 105% (inactive).
With `NC(=O)C1CCN(c2nc(-c3cc4ccccc4o3)cs2)CC1` the viability was 109% (inactive).
In the case of `COc1cccc(NC(=O)Nc2ccc3nc(C)c(C)nc3c2)c1`, the viability is reported as 82.2% (inactive).
With `Cc1ccc(O)c(CCc2ccccc2)n1` the viability was 116% (inactive).
`Cc1ccc(C(=O)NCCCN2CCOCC2)c(C)c1` was tested, and the viability was 108% (inactive).
In the case of `COCCCN1CCc2[nH]c(=S)[nH]c(=O)c2C1`, the viability is reported as 102% (inactive).
With `Cc1ccc(NC(=O)COC(=O)CCc2c[nH]c3ccccc23)c(C)c1` the viability was 122% (inactive).
`CN1CCN(S(=O)(=O)c2ccc(C(=O)Nc3ccccc3)cc2)CC1` was tested, and the viability was 108% (inactive).
`CCCNC(=O)c1nc2ncc(Br)cn2n1` was tested, and the viability was 103% (inactive).
For `CC(=O)Nc1ccc(S(=O)(=O)NC2CCSc3ccccc32)cc1` (stereo not drawn), the viability was 110% (inactive).
`O=C(COC(=O)C12CC3CC(CC(Br)(C3)C1)C2)Nc1cccc(S(=O)(=O)N2CCOCC2)c1` was tested, and the viability was 99.3% (inactive).
For `COc1ccccc1NS(=O)(=O)c1cc(NC(=O)CNC(=O)c2cc(C)cc(C)c2)ccc1C`, the viability was 61.6% (inactive).
For `O=C(NNS(=O)(=O)c1ccc2ccccc2c1)c1cccs1`, the viability was 110% (inactive).
`O=C(NCc1cccnc1)C(=O)NCC(c1ccco1)N1CCN(c2ccccc2)CC1` (stereo not drawn) was tested, and the viability was 106% (inactive).
`CN(C)S(=O)(=O)c1ccc(C(=O)NCCc2ccco2)cc1` was tested, and the viability was 108% (inactive).
With `COc1ccc(NC(=O)CSCC(=O)Nc2cccc(S(=O)(=O)N3CCCCCC3)c2)cc1` the viability was 68.7% (inactive).
`CCOC(=O)N1CCN(C(=O)c2ccc(CS(=O)Cc3ccc(C)cc3)o2)CC1` (stereo not drawn) was tested, and the viability was 107% (inactive).
In the case of `CCN(CC)S(=O)(=O)c1ccc(Cl)c(NC(=O)COC(=O)C2CCCCC2)c1`, the viability is reported as 102% (inactive).
In the case of `CCOC(=O)C1CCCN(S(=O)(=O)c2ccc(F)c(C(=O)Nc3ccc(F)c(F)c3)c2)C1` (stereo not drawn), the viability is reported as 91.6% (inactive).
`Cc1sc2ncnc(NCC(C)(C)N3CCOCC3)c2c1C` was tested, and the viability was -4.46%.
`Cc1cccc(NC(=O)C2CCN(S(=O)(=O)c3c(C)[nH]c(=O)[nH]c3=O)CC2)c1` was tested, and the viability was 110% (inactive).
`COc1ccc(C2=Nc3cc(C)ccc3OC2)cc1` was tested, and the viability was 108% (inactive).
For `CCCCOc1ccc(C(=O)NCC(=O)N2CCN(C(=O)c3ccco3)CC2)cc1`, the viability was 107% (inactive).
